Experimental data as given in ChEMBL document CHEMBL6178019, “Discovery of CYP1A1 Inhibitors for Host-Directed Therapy against Sepsis” (J Med Chem, 2025).

How the values were obtained:
Assay type in all cases: cell-based
CYP1A1 [1] = biological target: T1, CYP1A1 (Mus musculus, UniProt P00184); test: Inhibition of CYP1A1 in mouse RAW264.7 cells assessed as relative activity by measuring fold change at 5 uM incubated for 12 hrs by EROD assay relative to control; conditions: read-out: FC
T1 sequence (P00184 whole entry): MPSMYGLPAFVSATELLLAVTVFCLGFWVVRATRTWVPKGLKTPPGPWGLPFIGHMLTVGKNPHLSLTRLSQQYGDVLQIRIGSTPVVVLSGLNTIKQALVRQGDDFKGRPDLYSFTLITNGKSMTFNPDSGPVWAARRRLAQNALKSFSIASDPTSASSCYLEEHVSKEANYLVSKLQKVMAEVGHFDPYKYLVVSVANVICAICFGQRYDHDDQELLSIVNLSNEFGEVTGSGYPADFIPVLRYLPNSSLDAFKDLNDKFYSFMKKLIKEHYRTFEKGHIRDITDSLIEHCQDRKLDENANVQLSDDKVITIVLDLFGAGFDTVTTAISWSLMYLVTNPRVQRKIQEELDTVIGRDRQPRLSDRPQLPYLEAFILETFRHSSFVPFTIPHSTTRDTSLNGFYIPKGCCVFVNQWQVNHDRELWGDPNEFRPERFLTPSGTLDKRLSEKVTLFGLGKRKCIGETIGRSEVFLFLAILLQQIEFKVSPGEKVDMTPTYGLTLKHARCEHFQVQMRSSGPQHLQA

CYP1A1 [2] = biological target: T1, CYP1A1; test: Inhibition of CYP1A1 in mouse RAW264.7 cells assessed as relative activity by measuring fold change at 500 nM incubated for 12 hrs by EROD assay relative to control; conditions: read-out: FC
Cytochrome P450 1A1 = biological target: T2, Cytochrome P450 1A1 (Homo sapiens, UniProt P04798); test: Inhibition of CYP1A1 in human Caco-2 cells assessed as relative activity by measuring fold change at 5.0 uM incubated for 12 hrs by EROD assay relative to control; conditions: caco-2, 12 h
T2 sequence (P04798 whole entry): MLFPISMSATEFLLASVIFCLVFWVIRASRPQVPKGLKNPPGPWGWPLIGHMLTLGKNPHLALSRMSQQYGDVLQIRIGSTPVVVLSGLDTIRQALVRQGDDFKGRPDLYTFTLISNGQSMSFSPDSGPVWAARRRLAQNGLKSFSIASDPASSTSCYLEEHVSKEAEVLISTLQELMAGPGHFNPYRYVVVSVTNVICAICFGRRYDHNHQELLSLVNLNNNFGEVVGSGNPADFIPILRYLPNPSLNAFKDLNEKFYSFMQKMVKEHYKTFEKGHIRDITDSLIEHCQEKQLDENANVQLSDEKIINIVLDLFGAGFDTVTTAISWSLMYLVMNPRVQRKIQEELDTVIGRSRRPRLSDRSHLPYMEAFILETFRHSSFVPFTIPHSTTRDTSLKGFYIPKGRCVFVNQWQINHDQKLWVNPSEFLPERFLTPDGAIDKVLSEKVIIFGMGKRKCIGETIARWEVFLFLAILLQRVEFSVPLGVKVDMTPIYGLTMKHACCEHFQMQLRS

CYP1A1 [3] = biological target: T3, CYP1A1 (Homo sapiens, UniProt P04798); test: Inhibition of CYP1A1 in human Caco-2 cells assessed as relative activity by measuring fold change at 500 nM incubated for 12 hrs by EROD assay relative to control; conditions: read-out: FC
T3 sequence (P04798 whole entry): T2 sequence (P04798 whole entry)

| Compound | fold induction at 12 h, 5 µM (CYP1A1 [1]) | fold induction at 12 h, 0.5 µM (CYP1A1 [2]) | fold change (FC) (Cytochrome P450 1A1) | fold induction at 12 h, 0.5 µM (CYP1A1 [3]) |
| --- | --- | --- | --- | --- |
| Cn1c(=O)n(C)c2cc(C(=O)/C=C/c3ccccc3)ccc21 | 0.22 | 0.95 | 0.28 | 0.71 |
| Cn1cccc1/C=C/C(=O)c1ccc2c(c1)n(C)c(=O)n2C | 1.07 | 1.47 | 0.09 | 0.45 |
| Cn1c(=O)n(C)c2cc(C(=O)/C=C/c3ccc(F)cc3)ccc21 | 0.19 | 0.29 | 0.08 | 0.47 |
| Cn1c(=O)n(C)c2cc(C(=O)/C=C/c3ccc([N+](=O)[O-])o3)ccc21 | 0.24 | 0.95 | 0.28 | 0.71 |
| C#Cc1ccc(/C=C/C(=O)c2ccc(NC(C)=O)cc2)cc1 | 0.57 | 1.12 | 0.43 | 0.76 |
| Cn1c(=O)n(C)c2cc(C(=O)/C=C/c3ccccc3P(c3ccccc3)c3ccccc3)ccc21 | 0.31 | 0.86 | 0.16 | 0.72 |
| Cc1ccc(/C=C/C(=O)c2ccc3c(c2)n(C)c(=O)n3C)cn1 | 0.2 | 0.77 | 0.08 | 0.66 |
| Cn1c(=O)n(C)c2cc(C(=O)/C=C/c3coc4ccccc34)ccc21 | 0.22 | 0.5 | 0.9 | 1.29 |
| Cn1c(=O)n(C)c2cc(C(=O)/C=C/c3c4ccccc4cc4ccccc34)ccc21 | 1.06 | 1.15 | 0.71 | 0.8 |
| Cn1c(=O)n(C)c2cc(C(=O)/C=C/c3cccn3C(=O)OC(C)(C)C)ccc21 | 0.55 | 0.69 | 0.67 | 0.9 |
| C#Cc1cccc(/C=C/C(=O)c2ccc3c(c2)n(C)c(=O)n3C)c1 | 0.14 | 1.07 | 0.01 | 0.18 |
| Cn1c(=O)n(C)c2cc(C(=O)/C=C/C=C/c3ccccc3)ccc21 | 0.44 | 0.62 | 0.35 | 0.82 |
| Cn1c(=O)n(C)c2cc(C(=O)/C=C/c3ccc(C#N)cc3)ccc21 | 0.6 | 0.82 | 0.51 | 0.83 |
| Cn1c(=O)n(C)c2cc(C(=O)/C=C/c3ncccn3)ccc21 | 0.72 | 0.73 | 0.88 | 1.05 |
| Cn1c(=O)n(C)c2cc(C(=O)/C=C/C=C/c3ccc(F)cc3)ccc21 | 0.57 | 0.82 | 0.17 | 0.62 |
| Cn1c(=O)n(C)c2cc(C(=O)/C=C/c3ccc(B(O)O)cc3F)ccc21 | 0.66 | 1.02 | 0.14 | 0.45 |
| CC(=O)n1cc(/C=C/C(=O)c2ccc3c(c2)n(C)c(=O)n3C)c2ccccc21 | 0.17 | 0.92 | 0.77 | 0.93 |
| Cn1c(=O)n(C)c2cc(C(=O)/C=C/c3ccc(C(C)(C)C)cc3)ccc21 | 0.51 | 0.64 | 0.97 | 0.98 |
| Cn1c(=O)n(C)c2cc(C(=O)/C=C/c3cc4ccccc4s3)ccc21 | 0.77 | 1.12 | 0.56 | 0.81 |
| Cn1c(=O)n(C)c2cc(C(=O)/C=C/c3ccncc3)ccc21 | 1.22 | 1.08 | 3.08 | 2.34 |
| Cn1c(=O)n(C)c2cc(C(=O)/C=C/c3cccnc3)ccc21 | 0.53 | 2.57 | 0.93 | 3.53 |
| Cn1c(=O)n(C)c2cc(C(=O)/C=C/C#Cc3ccccc3)ccc21 | 0.49 | 0.79 | 0.39 | 0.85 |
| Cn1c(=O)n(C)c2cc(C(=O)/C=C/c3cnc4ccccc4c3)ccc21 | 0.29 | 1.03 | 0.15 | 0.62 |
| Cn1c(=O)n(C)c2cc(C(=O)/C=C/c3ccc(-c4ccccc4)cc3)ccc21 | 0.81 | 0.96 | 0.15 | 0.75 |
| CN(C)c1ccc(/C=C/C(=O)c2ccc3c(c2)n(C)c(=O)n3C)cc1 | 0.54 | 1.05 | 0.24 | 0.52 |
| Cn1c(=O)n(C)c2cc(C(=O)/C=C/c3c(F)c(F)c(F)c(F)c3F)ccc21 | 0.43 | 0.69 | 0.34 | 0.8 |
| Cn1c(=O)n(C)c2cc(S(=O)(=O)NCc3ccccc3)ccc21 | 0.9 | 1.02 | 0.94 | 1.1 |
| C#Cc1ccc(/C=C/C(=O)c2ccccc2)cc1 | 0.18 | 0.52 | 0.3 | 0.6 |
